Data taken from patent US9232798B2, “Pesticidal composition and its use” (SUMITOMO CHEMICAL COMPANY, LIMITED, priority 2010, dated 2016).

Test system: Rhizoctonia solani
Assay: Soybean seed treatment test against Rhizoctonia solani in contaminated soil (Test Example)
Format: in vivo, Rhizoctonia solani on soybean (variety: Natto shoryu)
Settings: carboxamide compound alone 0.2 g/100 kg of seeds (no fipronil), soybean grown 20 days in soil contaminated by Rhizoctonia solani, from disease severity versus non-treated plot
Procedure: A cyclohexanone solution (100 microL) containing prescribed amount (weight) of a test compound was applied on seeds of soybean (variety: Natto shoryu) (10 g) by using a rotary apparatus for seed treatment (Seed dresser, manufactured by Hans-Ulrich Hege GmbH).
One day after the treatment, plastic pot was filled with soil contaminated by Rhizoctonia solani, and the seeds treated with the test compounds were seeded in the soil and cultivated in a glass-greenhouse for 20 days (hereinafter referred to as “treated plot”).
Thereafter, the presence of disease caused by Rhizoctonia solani in the young plants which germinated from each seed was observed and disease severity was calculated according to the following calculation formula (1).
On the other hand, seeds of soybean which were not treated as above were cultivated in the same way as above (hereinafter referred to as “non-treated plot”) and the disease severity in “non-treated plot” was calculated in the same way as above “treated plot”. On the basis of the above disease severity in “treated plot” and the “non-treated plot”, efficacy in “treated plot” was evaluated according to the following calculation formula (2). […]

`CC1CC(C)(C)c2cccc(NC(=O)c3cn(C)nc3C(F)F)c21` (stereo not shown) [carboxamide compound (1)] was tested, and the “efficacy (%)” value was 42.1%.
